Laboratory results: the NIST ThermoML archive (doi:10.1021/je700260f)
± gives the expanded uncertainty stated by the source.

Details: 323.14 K, Liquid, Vibrating tube method

FC(C(F)(F)F)C(F)(F)F [1,1,1,2,3,3,3-heptafluoropropane]
Details	mass density [kg/m3]
18469 kPa	1413.4 ± 1.6
18489 kPa	1413.6 ± 1.6
18518 kPa	1413.8 ± 1.6
18639 kPa	1414.5 ± 1.6
18664 kPa	1414.6 ± 1.6
18688 kPa	1414.7 ± 1.6
18713 kPa	1414.8 ± 1.6
18738 kPa	1414.8 ± 1.6
18764 kPa	1415.1 ± 1.6
18787 kPa	1415.1 ± 1.6
18806 kPa	1415.3 ± 1.6
18836 kPa	1415.4 ± 1.6
19030 kPa	1416.6 ± 1.6
19049 kPa	1416.5 ± 1.6
19073 kPa	1416.7 ± 1.6
19091 kPa	1416.8 ± 1.6
19111 kPa	1416.8 ± 1.6
19136 kPa	1416.9 ± 1.6
19224 kPa	1417.4 ± 1.6
19244 kPa	1417.5 ± 1.6
19276 kPa	1417.6 ± 1.6
19303 kPa	1417.9 ± 1.6
19335 kPa	1418 ± 1.6
19359 kPa	1418.1 ± 1.6
19382 kPa	1418.2 ± 1.6
19410 kPa	1418.4 ± 1.6
19431 kPa	1418.5 ± 1.6
19452 kPa	1418.4 ± 1.6
19473 kPa	1418.7 ± 1.6
19509 kPa	1418.8 ± 1.6
19534 kPa	1419.1 ± 1.6
19563 kPa	1419.2 ± 1.6
19591 kPa	1419.1 ± 1.6
19608 kPa	1419.2 ± 1.6
19637 kPa	1419.5 ± 1.6
19667 kPa	1419.6 ± 1.6
19693 kPa	1419.8 ± 1.6
19721 kPa	1419.9 ± 1.6
19746 kPa	1419.9 ± 1.6
19771 kPa	1420 ± 1.6
19795 kPa	1420.5 ± 1.6
19830 kPa	1420.4 ± 1.6
19857 kPa	1420.6 ± 1.6
19893 kPa	1420.7 ± 1.6
19917 kPa	1420.9 ± 1.6
19942 kPa	1421.1 ± 1.6
19968 kPa	1421.2 ± 1.6
19996 kPa	1421.3 ± 1.6
20014 kPa	1421.4 ± 1.6
20047 kPa	1421.4 ± 1.6
20075 kPa	1421.5 ± 1.6
20101 kPa	1421.8 ± 1.6
20124 kPa	1421.9 ± 1.6
20452 kPa	1423.5 ± 1.6
20511 kPa	1423.8 ± 1.6
20538 kPa	1423.8 ± 1.6
20571 kPa	1424.1 ± 1.6
20600 kPa	1424.3 ± 1.6
20632 kPa	1424.4 ± 1.6
20657 kPa	1424.6 ± 1.6
20681 kPa	1424.6 ± 1.6
20715 kPa	1424.8 ± 1.6
20735 kPa	1424.9 ± 1.6
20759 kPa	1425 ± 1.6
20780 kPa	1425.1 ± 1.6
20814 kPa	1425.2 ± 1.6
20837 kPa	1425.4 ± 1.6
20864 kPa	1425.5 ± 1.6
20891 kPa	1425.6 ± 1.6
20919 kPa	1425.8 ± 1.6
20943 kPa	1425.8 ± 1.6
20963 kPa	1426 ± 1.6
20994 kPa	1426.2 ± 1.6
21021 kPa	1426.3 ± 1.6
21041 kPa	1426.4 ± 1.6
21069 kPa	1426.5 ± 1.6
21100 kPa	1426.5 ± 1.6
21124 kPa	1426.7 ± 1.6
21151 kPa	1426.8 ± 1.6
21174 kPa	1427 ± 1.6
21195 kPa	1427.2 ± 1.6
21219 kPa	1427.1 ± 1.6
21243 kPa	1427.2 ± 1.6
21271 kPa	1427.4 ± 1.6
21296 kPa	1427.5 ± 1.6
21318 kPa	1427.7 ± 1.6
21353 kPa	1427.8 ± 1.6
21376 kPa	1428.1 ± 1.6
21404 kPa	1428.1 ± 1.6
21424 kPa	1428.1 ± 1.6
21456 kPa	1428.3 ± 1.6
21478 kPa	1428.4 ± 1.6
21511 kPa	1428.6 ± 1.6
21546 kPa	1428.8 ± 1.6
21572 kPa	1428.9 ± 1.6
21597 kPa	1429 ± 1.6
21630 kPa	1429.1 ± 1.6
21660 kPa	1429.3 ± 1.6
21684 kPa	1429.4 ± 1.6
21712 kPa	1429.4 ± 1.6
21734 kPa	1429.6 ± 1.6
22001 kPa	1430.9 ± 1.6
22031 kPa	1431 ± 1.6
22058 kPa	1431.1 ± 1.6
22088 kPa	1431.3 ± 1.6
22114 kPa	1431.5 ± 1.6
22137 kPa	1431.4 ± 1.6
22174 kPa	1431.7 ± 1.6
22209 kPa	1431.8 ± 1.6
22233 kPa	1432 ± 1.6
22272 kPa	1432.1 ± 1.6
22308 kPa	1432.2 ± 1.6
22334 kPa	1432.5 ± 1.6
22366 kPa	1432.6 ± 1.6
22390 kPa	1432.7 ± 1.6
22418 kPa	1432.7 ± 1.6
22439 kPa	1432.9 ± 1.6
22462 kPa	1433.1 ± 1.6
22489 kPa	1433.2 ± 1.6
22513 kPa	1433.3 ± 1.6
22533 kPa	1433.3 ± 1.6
22571 kPa	1433.6 ± 1.6
22602 kPa	1433.6 ± 1.6
22627 kPa	1433.8 ± 1.6
22657 kPa	1434 ± 1.6
22685 kPa	1434.1 ± 1.6
22721 kPa	1434.2 ± 1.6
22744 kPa	1434.3 ± 1.6
22777 kPa	1434.5 ± 1.6
22801 kPa	1434.6 ± 1.6
22825 kPa	1434.6 ± 1.6
22862 kPa	1434.8 ± 1.6
22889 kPa	1435 ± 1.6
22927 kPa	1435.2 ± 1.6
22962 kPa	1435.2 ± 1.6
23026 kPa	1435.6 ± 1.6
23049 kPa	1435.7 ± 1.6
23075 kPa	1435.7 ± 1.6
23101 kPa	1436 ± 1.6
23130 kPa	1436.1 ± 1.6
23163 kPa	1436.3 ± 1.6
23185 kPa	1436.3 ± 1.6
23221 kPa	1436.4 ± 1.6
23254 kPa	1436.5 ± 1.6
23276 kPa	1436.7 ± 1.6
23305 kPa	1436.8 ± 1.6
23328 kPa	1437 ± 1.6
23354 kPa	1437.1 ± 1.6
23380 kPa	1437.2 ± 1.6
23402 kPa	1437.2 ± 1.6
23428 kPa	1437.5 ± 1.6
23454 kPa	1437.5 ± 1.6
23484 kPa	1437.7 ± 1.6
23510 kPa	1437.7 ± 1.6
23538 kPa	1437.9 ± 1.6
23560 kPa	1438 ± 1.6
23587 kPa	1438.1 ± 1.6
23609 kPa	1438.2 ± 1.6
23776 kPa	1439 ± 1.6
23810 kPa	1439 ± 1.6
23832 kPa	1439.2 ± 1.6
23865 kPa	1439.2 ± 1.6
23891 kPa	1439.5 ± 1.6
23918 kPa	1439.6 ± 1.6
23949 kPa	1439.6 ± 1.6
23975 kPa	1439.9 ± 1.6
23998 kPa	1439.9 ± 1.6
24025 kPa	1440 ± 1.6
24056 kPa	1440 ± 1.6
24079 kPa	1440.3 ± 1.6
24109 kPa	1440.4 ± 1.6
24134 kPa	1440.5 ± 1.6
24156 kPa	1440.7 ± 1.6
24187 kPa	1440.7 ± 1.6
24223 kPa	1440.9 ± 1.6
24254 kPa	1441.1 ± 1.6
24277 kPa	1441.2 ± 1.6
24304 kPa	1441.1 ± 1.6
24342 kPa	1441.4 ± 1.6
24400 kPa	1441.5 ± 1.6
24420 kPa	1441.7 ± 1.6
24564 kPa	1442.3 ± 1.6
24596 kPa	1442.6 ± 1.6
24658 kPa	1442.8 ± 1.6
24699 kPa	1443 ± 1.6
24727 kPa	1443.1 ± 1.6
24768 kPa	1443.2 ± 1.6
24794 kPa	1443.4 ± 1.6
24828 kPa	1443.6 ± 1.6
24859 kPa	1443.8 ± 1.6
24889 kPa	1443.8 ± 1.6
24914 kPa	1444 ± 1.6
24955 kPa	1444.1 ± 1.6
24984 kPa	1444.1 ± 1.6
25017 kPa	1444.3 ± 1.6
25047 kPa	1444.4 ± 1.6
25081 kPa	1444.7 ± 1.6
25116 kPa	1444.8 ± 1.6
25141 kPa	1445 ± 1.6
25410 kPa	1446.1 ± 1.6
25440 kPa	1446.3 ± 1.6
25947 kPa	1448.3 ± 1.6
25974 kPa	1448.4 ± 1.6
26063 kPa	1448.8 ± 1.6
26227 kPa	1449.5 ± 1.6
26309 kPa	1449.7 ± 1.6
